In patent US9072737B2, “tPA mutant in the treatment of acute brain injury and neurodegenerative disorders” (HADASIT MEDICAL RESEARCH SERVICES & DEVELOPMENT LTD., priority 2008, dated 2015):

Tested on: Blood Brain Barrier (BBB)
Assay: Blood brain barrier permeability, Evans blue uptake into brain
Type: in vivo, mice
Conditions: peptide 1 mg/kg i.p. together with tPA 1 mg/kg; FIG. 4A
Experimental: The uptake of Evans blue dye into a brain tissue served as a marker to for quantifying disruption of the blood-brain barrier and increase in permeability of the BBB. […] Data was expressed as absorbance at 620 nm per gram of tissue. The mean±SEM of data from 8-9 animals/group are shown.
FIG. 4A. Mice were injected i.p. with 25 μl of saline or saline containing either WT-tPA or mtPA (1 mg/kg each) alone or together with PAI-1 derived 18 amino acids (aa) (as denoted by SEQ ID NO. 8) or 6 aa (as denoted by SEQ ID NO. 3) peptides (1 mg/kg each). Ten minutes later, the mice were given an i.v. injection of 2% Evans blue (EB) in saline. One hour after injection of dye, organs were cleared of blood by transcardiac perfusion. […] Extruded dye was quantified by absorbance at 620 nm. The figure presents a histogram illustration of the absorbance of EB at […] per gram of tissue. […]
To determine the effect of injection of tPA-S^481A on BBB function, anesthetized mice were injected i.p. with 25 μl of saline or saline containing tPA or tPA mutant (tPA-Ser^481Ala) (1 mg/kg each), followed by the intravenous injection of 2% Evans blue in saline. Evans blue was quantified by absorbance at 620 nm.
Plasminogen activator inhibitor-1 (PAI-1) is recognized as the inhibitor of tPA. […] Extruded dye was quantified by absorbance at 620 nm. Data are expressed in FIG. 4A as absorbance per gram of tissue.

**Q.** How did the “inhibition of recombinant tPA-induced BBB permeability” value turn out when “EEIIMD (listed as Homo sapiens) [reference compound]” was run?
**A.** Its value is “failed to decrease”.
